The source of these data is patent publication US7696244B2, “Compounds having activity in increasing ion transport by mutant-CFTR and uses thereof” (The Regents of the University of California, priority 2003, dated 2010).

The target of one experiment is T1, human ΔF508-CFTR (Homo sapiens, UniProt P13569, DEL508-508).
T1 construct: expressed in transfected cells; host or cells: Fischer rat thyroid (FRT) epithelial cells
Kind of experiment: Fluorescence (YFP-H148Q/I152L) I− influx assay of ΔF508-CFTR potentiator activity in FRT cells. The experiment is classed as cell-based. The conditions noted are these: for Kd: FRT cells, 27° C. rescue, forskolin 20 μM, read-out: Kd for activation of ΔF508-CFTR from the fluorescence assay. The protocol:
(§1) Clonal populations of Fischer rat thyroid (FRT) epithelial cells stably co-expressing human ΔF508-CFTR and the high-sensitivity halide-sensing green fluorescent analog YFP-H148Q/I152L (Galietta et al., A.S. (2001) FEBS Lett. 499, 220-224) were generated by liposome transfection and limiting dilution with Zeocin/G418 selection. More than 100 clones were evaluated for high fluorescence and ΔF508-CFTR plasma membrane targeting after growth at 27° C. for 24 hours. For screening, cells were cultured on plastic in Coon's modified F12 medium supplemented with 10% fetal bovine serum, 2 mM L-glutamnine, 100 U/ml penicillin, and 100 μg/ml streptomycin, and plated on black 96-well microplates (Corning-Costar 3904) at 30,000 cells/well. For short-circuit measurements cells were cultured on Snapwell permeable supports (Corning-Costar) at 500,000 cells/insert. Some measurements were done using stably transfected FRT cells expressing YFP-H148Q and wildtype- or G551D-CFTR (Galietta et al., (2001) J. Biol. Chem. 276, 19723-19728). Patch clamp experiments were done on ΔF508-CFTR-expressing FRT cells plated in 35-mm Petri dishes.
For assay of ΔF508-CFTR potentiator activity the incubator (27° C., 90% humidity, 5% CO2/95% air) was loaded with forty-to-sixty 96-well plates containing FRT cells. After an 18-24 hour incubation plates were washed 3 times with PBS (300 μl/wash) leaving 50 μl PBS. 10 μl of PBS containing 120 μM forskolin was added, and after 5 min test compounds (0.6 μl of 0.25 mM DMSO solution) were added to each well to give 2.5 μM final-compound concentrations. After 15 min, 96-well plates were transferred to a plate reader for fluorescence assay. Each well was assayed individually for I^− influx by recording fluorescence continuously (200 ms per point) for 2 s (baseline) and then for 12 s after rapid (<1 s) addition of 160 μL of isosmolar PBS in which 137 mM Cl^− was replaced by I^−.I^− influx rates were computed from initial fluorescence versus time-curve slopes (determined by 3rd order polynomial regression) after normalization for total fluorescence (background subtracted initial fluorescence).
The high-throughput screen was designed to identify compounds that activated ΔF508-CFTR when expressed at the cell plasma membrane. FRT epithelial cells co-expressing ΔF508-CFTR and a high sensitivity green fluorescent protein-based halide indicator were incubated at 27° C. for 24 h to permit ΔF508-CFTR plasma membrane targeting (FIG. 1A). After washing, forskolin (20 μM) and test compounds (2.5 μM) were added to individual wells of 96-well plates. The I^− influx assay was carried out ˜15 min later by measurement of the time course of decreasing YFP fluorescence after creation of an inwardly-directed I^− gradient. A high concentration of forskolin was used to identify ΔF508-CFTR potentiators that may interact directly with ΔF508-CFTR rather than alter cAMP concentration. Since activation of CFTR requires cAMP stimulation, forskolin, an enhancer of cAMP, was added to the in vitro models in order to mimic the cellular cAMP stimulation.
The strong potentiators were subjected to secondary analysis to select a subset for further analysis. None of the strong potentiators stimulated I^− influx in the fluorescence assay using FRT null cells (expressing YFP-H148Q/[…] alone) or in ΔF508-CFTR expressing cells in the absence of forskolin. The increased I^− influx for each potentiator was blocked by the thiazolidinone CFTR inhibitor CFTRinh-172 (19). […] Several of these compounds are shown in FIG. 6, along with data as to the activity of these compounds.

The next experiment deals with cellular cAMP content. Put plainly: Cellular cAMP content in FRT cells (BIOTRAK enzymatic immunoassay). It counts as cell-based, rat. The protocol:
(§2) cAMP activity was measured using the BIOTRAK enzymatic immunoassay (Amersham) on FRT cell lysates after incubation with the compound of interest for 10 min without or with 0.5 μM forskolin. Phosphatase activity was determined on cell homogenates using a non-radioactive assay kit (Promega) as described previously (Galietta et al., (2001) J. Biol. Chem. 276, 19723-19728).
(§3) The compounds shown in FIGS. 2A and 3A were assayed for cAMP stimulation and phosphatase inhibition. Cellular cAMP content was measured in FRT cells in the presence of a low forskolin concentration (0.5 μM) with or without test compounds. […] Maximal forskolin (20 μM) gave 1350±17 finol/well. The ΔF508 potentiators at 5 μM gave no increase in cellular cAMP content, except for ΔF508act-04 and ΔF508act-06, which gave modest cAMP elevations (212±17 and 281±37 finol/well, respectively). […] The ΔF508-CFTR potentiators (25 μM, 48 h) were judged to be non-toxic to FRT cells by the dihydrorhodamine assay (Wang et al., (2000) J. Physiol. 524:637-638) and by unimpaired cell growth.

In the next experiment the target is T2, G551D-CFTR (Homo sapiens, UniProt P13569, G551D).
T2 construct: expressed in transfected cells; host or cells: FRT cells
T2 sequence (P13569 whole entry G551D): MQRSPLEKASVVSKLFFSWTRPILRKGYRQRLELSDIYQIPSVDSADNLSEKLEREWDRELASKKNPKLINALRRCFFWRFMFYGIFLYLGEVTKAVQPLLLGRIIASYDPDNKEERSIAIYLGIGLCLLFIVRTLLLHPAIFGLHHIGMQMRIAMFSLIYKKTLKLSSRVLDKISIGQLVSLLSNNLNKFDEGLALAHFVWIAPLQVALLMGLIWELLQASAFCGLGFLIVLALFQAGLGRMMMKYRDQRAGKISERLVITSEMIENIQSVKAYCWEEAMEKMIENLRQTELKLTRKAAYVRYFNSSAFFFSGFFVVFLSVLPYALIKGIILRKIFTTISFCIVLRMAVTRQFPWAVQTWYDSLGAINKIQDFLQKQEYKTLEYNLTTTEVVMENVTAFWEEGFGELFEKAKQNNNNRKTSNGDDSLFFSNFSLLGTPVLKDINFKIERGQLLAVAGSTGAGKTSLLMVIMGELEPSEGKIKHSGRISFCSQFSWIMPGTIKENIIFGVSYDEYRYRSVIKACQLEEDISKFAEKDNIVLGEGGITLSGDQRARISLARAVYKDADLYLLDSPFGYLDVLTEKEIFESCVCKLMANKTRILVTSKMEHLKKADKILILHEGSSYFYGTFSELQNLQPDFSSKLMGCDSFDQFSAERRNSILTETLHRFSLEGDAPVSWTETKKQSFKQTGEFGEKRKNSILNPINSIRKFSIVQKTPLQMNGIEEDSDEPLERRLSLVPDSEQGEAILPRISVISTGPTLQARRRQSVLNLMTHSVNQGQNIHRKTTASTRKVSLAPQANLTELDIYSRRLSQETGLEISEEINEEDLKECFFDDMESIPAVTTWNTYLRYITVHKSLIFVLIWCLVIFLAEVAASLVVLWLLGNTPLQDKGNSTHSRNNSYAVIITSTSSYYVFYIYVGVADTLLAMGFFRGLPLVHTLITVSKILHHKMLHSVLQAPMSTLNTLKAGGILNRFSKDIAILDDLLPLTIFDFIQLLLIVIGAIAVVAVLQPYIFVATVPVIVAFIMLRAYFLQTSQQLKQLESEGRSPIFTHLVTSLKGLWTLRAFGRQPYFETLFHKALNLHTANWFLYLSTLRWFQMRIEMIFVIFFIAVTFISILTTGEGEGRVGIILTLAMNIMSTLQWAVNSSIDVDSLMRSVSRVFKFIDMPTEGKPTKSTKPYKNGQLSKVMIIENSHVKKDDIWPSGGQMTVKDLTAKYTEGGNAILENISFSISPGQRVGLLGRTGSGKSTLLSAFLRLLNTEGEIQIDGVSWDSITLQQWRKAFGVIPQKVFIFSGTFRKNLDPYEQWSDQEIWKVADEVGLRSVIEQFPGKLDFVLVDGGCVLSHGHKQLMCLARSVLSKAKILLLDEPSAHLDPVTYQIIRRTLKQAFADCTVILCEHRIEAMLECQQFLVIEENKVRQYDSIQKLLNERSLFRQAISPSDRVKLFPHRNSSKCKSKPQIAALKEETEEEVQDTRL
Kind of experiment: Activation of G551D-CFTR in transfected FRT cells. The conditions noted are these: positive control 50 μM + 20 μM forskolin. The experiment is classed as cell-based. The protocol:
as §1, with “For screening, cells were cultured on plastic in Coon's modified F12 medium supplemented with 10% fetal bovine serum, 2 mM L-glutamnine, 100 U/ml penicillin, and 100 μg/ml streptomycin, and plated on black 96-well microplates (Corning-Costar 3904) at 30,000 cells/well.” left out

Experiment [1] concerns human bronchial epithelial cells. Kind of experiment: Short-circuit current in human bronchial epithelial cells. It counts as cell-based. To be noted: S.E., n=3-5. The protocol:
Using chamber experiments were performed 7-9 days after plating ΔF508-CFTR expressing FRT cells on Snapwell inserts. The basolateral solution contained (in mM): 130 NaCl, 2.7 KCl, 1.5 KH2PO4, 1 CaCl2, 0.5 MgCl2, 10 glucose, 10 Na-Hepes (pH 7.3). In the apical bathing solution 65 mM NaCl was replaced by Na gluconate, and CaCl2 was increased to 2 mM. Solutions were bubbled with air and maintained at 37° C. The basolateral membrane was permeabilized with 250 μg/ml amphotericin B. For human bronchial epithelial cells, apical and basolateral chambers contained 126 mM NaCl, 0.38 mM KH2PO4, 2.1 mM K2HPO, 1 mM MgSO4, 1 mM CaCl2, 24 mM NaHCO3, and 10 mM glucose (basolateral membrane not permeabilized). The hemichambers were connected to a DVC-1000 voltage clamp (World Precision Instruments) via Ag/AgCl electrodes and 1 M KCl agar bridges for recording short-circuit current
The mean increase in short-circuit current (Isc) was 1.2±0.1 μA/cm^2 in the human cells (S.E., n=25). In five sets of measurements on the human bronchial cells, the percentage increase in Isc after compound versus forskolin alone was 174±28 (genistein); percentages for ΔF508act-01 through ΔF508act-06 were (S.E., n=3-5): 174±34, 131±35, 40±11, 51±17, 107±42, and 104±35, respectively.

A further experiment concerns phosphatase activity. Kind of experiment: Phosphatase activity assay on cell homogenates. It counts as biochemical. The protocol:
as §2, §3

The target of the next experiment is T3, wildtype CFTR (Homo sapiens, UniProt P13569).
T3 construct: expressed in transfected cells; host or cells: FRT cells
T3 sequence (P13569 whole entry): as the sequence (P13569 whole entry G551D) above, with D551G counted along it
Put plainly: Activation of wildtype CFTR in transfected FRT cells. It counts as cell-based. To be noted: in the presence of forskolin 50 nM. The protocol: as §1
The six ΔF508-CFTR potentiators shown in FIG. 2A were tested for activation of wildtype and G551D-CFTR in transfected FRT cells. […] Kd values for activation of wildtype CFTR by ΔF508act-01 through ΔF508act-06 were (in μM): 0.18±0.02, 1.3±0.2, 2.2±0.3, 0.02±0.005, 0.06±0.01 and 0.05±0.01, respectively. These potencies are quite different from those for ΔF508-CFTR activation.

The mark [2] stands for this setting: compound 5 μM, forskolin 0.5 μM, control 129±7.

SMILES strings stand for the structures.

T1 sequence (P13569 with tags, fused parts or gaps DEL508-508): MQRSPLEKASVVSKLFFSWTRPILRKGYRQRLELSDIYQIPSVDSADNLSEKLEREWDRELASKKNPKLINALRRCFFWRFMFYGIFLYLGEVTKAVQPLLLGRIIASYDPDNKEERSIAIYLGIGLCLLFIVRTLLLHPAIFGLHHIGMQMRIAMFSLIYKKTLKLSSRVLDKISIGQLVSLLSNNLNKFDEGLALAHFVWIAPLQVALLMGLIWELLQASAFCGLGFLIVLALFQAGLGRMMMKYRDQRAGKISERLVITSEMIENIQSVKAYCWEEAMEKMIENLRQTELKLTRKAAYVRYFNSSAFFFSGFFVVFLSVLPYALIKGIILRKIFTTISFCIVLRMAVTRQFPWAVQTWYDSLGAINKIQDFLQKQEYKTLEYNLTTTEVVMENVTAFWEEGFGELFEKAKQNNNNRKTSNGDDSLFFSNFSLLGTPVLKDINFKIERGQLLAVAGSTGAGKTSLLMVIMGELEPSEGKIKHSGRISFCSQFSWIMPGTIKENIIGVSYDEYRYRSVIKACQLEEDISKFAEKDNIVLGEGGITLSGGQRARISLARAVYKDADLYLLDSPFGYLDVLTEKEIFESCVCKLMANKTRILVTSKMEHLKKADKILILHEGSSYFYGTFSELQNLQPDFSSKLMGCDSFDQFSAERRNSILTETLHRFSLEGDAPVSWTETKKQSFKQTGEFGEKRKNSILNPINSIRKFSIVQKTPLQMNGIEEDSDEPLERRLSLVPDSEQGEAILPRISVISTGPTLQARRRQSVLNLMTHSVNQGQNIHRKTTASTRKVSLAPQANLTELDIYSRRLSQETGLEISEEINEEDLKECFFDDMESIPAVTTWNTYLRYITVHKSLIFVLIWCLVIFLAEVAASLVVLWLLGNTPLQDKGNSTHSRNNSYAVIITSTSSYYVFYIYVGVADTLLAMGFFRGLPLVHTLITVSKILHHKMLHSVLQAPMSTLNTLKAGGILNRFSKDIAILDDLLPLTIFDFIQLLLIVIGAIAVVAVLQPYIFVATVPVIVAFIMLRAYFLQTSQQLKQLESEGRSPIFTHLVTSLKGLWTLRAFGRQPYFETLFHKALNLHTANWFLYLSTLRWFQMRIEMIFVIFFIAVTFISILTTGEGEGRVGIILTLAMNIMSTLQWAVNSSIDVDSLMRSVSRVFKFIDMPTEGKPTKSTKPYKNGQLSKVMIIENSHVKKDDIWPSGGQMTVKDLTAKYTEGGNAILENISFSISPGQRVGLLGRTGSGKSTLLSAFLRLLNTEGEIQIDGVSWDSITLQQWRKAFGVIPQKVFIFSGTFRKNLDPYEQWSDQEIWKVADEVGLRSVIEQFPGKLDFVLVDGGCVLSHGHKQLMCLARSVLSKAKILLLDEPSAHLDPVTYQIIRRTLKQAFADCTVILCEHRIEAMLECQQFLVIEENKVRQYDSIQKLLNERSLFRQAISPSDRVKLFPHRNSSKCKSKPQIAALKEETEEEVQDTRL

As to `O=C(O)c1ccc(/C=C2\SC(=S)N(c3cccc(C(F)(F)F)c3)C2=O)cc1` [CFTRinh-172, reference compound], the “effect on potentiator-increased I− influx” value at human ΔF508-CFTR is listed as “blocked”.
Regarding `C=C[C@@]1(C)CC(=O)[C@]2(O)[C@@]3(C)[C@@H](O)CCC(C)(C)[C@@H]3[C@H](O)[C@H](OC(C)=O)[C@@]2(C)O1` [forskolin, reference compound], in the experiment on cellular cAMP content (maximal forskolin 20 μM), the cAMP content is 1350±17 finol/well.
With `O=c1c(-c2ccc(O)cc2)coc2cc(O)cc(O)c12` [genistein, reference compound], the G551D-CFTR activation result at G551D-CFTR is on record as “strong activation”. The “percentage increase in Isc after compound versus forskolin alone” value (from here on “percentage increase in Isc”) in experiment [1] is recorded as 174±28%.
`C=C1[C@@H](O)[C@@H]2O[C@]3(CC[C@H](/C=C/[C@@H](C)[C@@H]4CC(C)=C[C@@]5(O[C@H](C[C@@](C)(O)C(=O)O)CC[C@H]5O)O4)O3)CC[C@H]2O[C@@H]1[C@@H](O)C[C@H](C)[C@H]1O[C@@]2(CCCCO2)CC[C@H]1C` [okadaic acid]: the “inhibition of phosphatase activity” value in the experiment on phosphatase activity was greater than 90%. Moreover, the phosphatase activity in the experiment with phosphatase activity (control 703±69) is 56±15 pmol free phosphate/μg protein.
As for `COc1ccc(-n2c(C)cc(C=C3C(=O)NC(=O)N(Cc4ccco4)C3=O)c2C)cc1` [ΔF508act-01, 1-Furan-2-yhnethyl-5-[1-(4-methoxy-phenyl)-2,5-dimethyl-1H-pyrrol-3-ylmethylene]-pyrimidine-2,4,6-trione], on human ΔF508-CFTR, the Kd amounted to 1.3 ± 0.1 µM. For the same compound, in experiment [1], the “percentage increase in Isc” value amounted to 174±34%.
Consider `NC(=O)c1c(NC(=O)c2ccccc2Cl)sc2c1CCCC2` [ΔF508act-02, 2-(2-Chloro-benzoylamino)-4,5,6,7-tetrahydro-benzo[b]thiophene-3-carboxylic acid amide], for which the Kd was found to be 0.18 ± 0.03 µM on human ΔF508-CFTR and 1.3 ± 0.2 µM on wildtype CFTR. In addition, the “percentage increase in Isc” value in experiment [1] is recorded as 131±35%.
`Cc1cc(Br)c2[nH]c3c(c2c1)CCCC3=O` [ΔF508act-03, 8-Bromo-6-methyl-2,3,4,9-tetrahydro-carbazol-1-one]: the Kd at human ΔF508-CFTR was 0.7 ± 0.04 µM; on wildtype CFTR, 2.2 ± 0.3 µM. Besides, the “percentage increase in Isc” value in experiment [1] amounted to 40±11%.
Consider `CC(C)(C)c1ccc(Oc2c(N)ccc3c2C(=O)c2ccccc2C3=O)cc1` [ΔF508act-04, 2-Amino-1-(4-tert-butyl-phenoxy)-anthraquinone], for which the values for the Kd at human ΔF508-CFTR and at wildtype CFTR were 0.87 ± 0.1 µM and 0.02 ± 0.005 µM, respectively. Besides, in the experiment on cellular cAMP content (setting [2]), the cAMP content was found to be 212±17 finol/well. In addition, in experiment [1], the “percentage increase in Isc” value was 51±17%.
For the compound `COC(=O)C1=C(C)NC(C)=C(C(=O)OC)C1c1ccc(C(C)C)cc1` [ΔF508act-05, 4-(4-Isopropyl-phenyl)-2,6-dimethyl-1,4-dihydro-pyridine-3,5-dicarboxylic acid dimethyl ester], the Kd on human ΔF508-CFTR worked out at 0.1 ± 0.01 µM; on wildtype CFTR it was 0.06 ± 0.01 µM. For the same compound, in experiment [1], the “percentage increase in Isc” value is on record as 107±42%.
In the case of `NC(=O)c1oc2ccccc2c1NC(=O)c1ccccc1` [ΔF508act-06, 3-Benzoylamino-benzofuran-2-carboxylic acid amide], the Kd at human ΔF508-CFTR was 0.65 ± 0.08 µM; on wildtype CFTR it was 0.05 ± 0.01 µM. For the same compound, the cAMP content in the experiment on cellular cAMP content (setting [2]) is recorded as 281±37 finol/well. For the same compound, the “percentage increase in Isc” value in experiment [1] came to 104±35%.
